{"source": "patent US20250360221A1", "about": "(priority 2025, published 2025)", "origin": "cited, not measured here", "key": {"[1]": {"conditions": "humans"}, "[2]": {"target": "μ-opioid receptor (Homo sapiens, UniProt P35372)", "sequence (P35372 whole entry, species assumed)": "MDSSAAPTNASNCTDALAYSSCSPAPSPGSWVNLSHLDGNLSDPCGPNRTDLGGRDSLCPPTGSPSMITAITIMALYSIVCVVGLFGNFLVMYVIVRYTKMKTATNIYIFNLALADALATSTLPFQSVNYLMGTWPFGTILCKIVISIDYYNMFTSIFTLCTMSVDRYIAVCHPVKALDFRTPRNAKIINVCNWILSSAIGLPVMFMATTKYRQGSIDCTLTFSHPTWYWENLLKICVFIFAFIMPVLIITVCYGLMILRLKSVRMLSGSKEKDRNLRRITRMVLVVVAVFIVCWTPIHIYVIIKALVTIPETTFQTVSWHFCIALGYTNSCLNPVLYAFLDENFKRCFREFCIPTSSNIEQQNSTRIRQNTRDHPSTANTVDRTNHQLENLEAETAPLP"}, "[3]": {"conditions": "across the human BBB; transporter type named"}, "[4]": {"conditions": "animals, prior art"}, "[5]": {"tested_on": "patients with severe cancer pain"}, "[6]": {"tested_on": "patients suffering from cancer pain", "conditions": "continuous intrathecal infusion for two weeks"}, "[7]": {"tested_on": "humans", "conditions": "epidural injections"}, "[8]": {"tested_on": "animals"}, "[9]": {"tested_on": "proteolytic enzymes", "conditions": "compared to other opioid peptides"}, "[10]": {"conditions": "intrathecal, 3 mg, patients with severe cancer pain"}}, "note": "“Also recorded” adds a separate entry of the source. Structures can show the parent of a compound that is named as a salt. Where two headings read alike, the source gives them in different places."}
{"molecule": "O=C1NC(c2ccccc2)(c2ccccc2)C(=O)N1COP(=O)(O)O", "note": "[fosphenytoin]", "values": [{"measurement": "crossing of the BBB", "setting": "[1]; prior art", "value": "crosses the BBB"}]}
{"molecule": "β-endorphin (1-27) (YGGFMTSEKSQTPLVTLFKNAIIKNAY; Beta-endorphin; UniProt P01189 237-263, looked up, fragment) [shorter fragment of β-endorphin]", "values": [{"measurement": "potency compared to β-endorphin (1-31)", "setting": "[2]", "value": "less potent"}]}
{"molecule": "CC(=O)Oc1ccc2c3c1O[C@H]1[C@@H](OC(C)=O)C=C[C@H]4[C@@H](C2)N(C)CC[C@@]341", "note": "[Diacetylmorphine]", "values": [{"measurement": "crossing of the BBB", "setting": "[1]; prior art", "value": "crosses the BBB"}]}
{"molecule": "Cc1cc(OCC(=O)O)cc(C)c1Cc1ccc(O)c(C(C)C)c1", "note": "[sobetirome]", "values": [{"measurement": "crossing of the BBB", "setting": "[1]; prior art", "value": "crosses the BBB"}]}
{"molecule": "CC/C=C\\C/C=C\\C/C=C\\C/C=C\\C/C=C\\C/C=C\\CCC(=O)O", "note": "[DHA, docosahexaenoic acid]", "values": [{"measurement": "Active Transport", "setting": "[3]", "value": "+ protein"}]}
{"molecule": "O=C1O[C@H]([C@@H](O)CO)C(=O)C1=O", "note": "[Dehydroascorbic acid]", "values": [{"measurement": "Active Transport", "setting": "[3]", "value": "+ GLUT"}, {"measurement": "crossing of the BBB", "setting": "[4]", "value": "crosses via GLUT1 transporter the BBB"}]}
{"molecule": "CC(C)CCC[C@@H](C)[C@H]1CC[C@H]2[C@@H]3CC=C4C[C@@H](O)CC[C@]4(C)[C@H]3CC[C@]12C", "note": "[Cholesterol]", "values": [{"measurement": "Active Transport", "setting": "[3]", "value": "+ lipid"}]}
{"molecule": "CC/C=C\\C/C=C\\C/C=C\\CCCCCCCC(=O)O", "note": "[Linolenic acid]", "values": [{"measurement": "Active Transport", "setting": "[3]", "value": "+ lipid"}]}
{"molecule": "β-endorphin", "values": [{"measurement": "respiratory depression", "setting": "[5]; intrathecal or epidural administration to humans", "value": "no evidence of respiratory depression"}, {"measurement": "adverse effects", "setting": "[5]; [10]", "value": "without major adverse effects"}, {"measurement": "duration of analgesia", "setting": "[5]; [10]", "value": "approximately 33.4 hours"}, {"measurement": "analgesia", "setting": "[6]", "value": "profound analgesia"}, {"measurement": "tolerance or respiratory depression", "setting": "[6]", "value": "did not demonstrate tolerance; also recorded: no evidence of tolerance or respiratory depression"}, {"measurement": "crossing of the BBB", "setting": "[1]; administered intravenously", "value": "does not cross the BBB"}, {"measurement": "duration of analgesia", "setting": "[7]", "value": 19.5, "unit": "h"}, {"measurement": "side effects", "setting": "[7]", "value": "without major side effects"}, {"measurement": "respiratory depression", "setting": "[8]; intracerebroventricular administration", "value": "reports of respiratory depression"}, {"measurement": "tolerance", "setting": "[8]; intracerebroventricular injection", "value": "tolerance develops"}, {"measurement": "resistance to degradation by proteolytic enzymes / peptidases", "setting": "[9]", "value": "resistant to degradation by proteolytic enzymes; also recorded: quite stable and resistant to many peptidases"}]}
{"molecule": "CCOC(=O)CC(O)(CC(=O)OCC)C(=O)OCC", "note": "[triethyl citrate]", "values": [{"measurement": "crossing of the BBB", "setting": "[1]; prior art", "value": "probably crosses the BBB"}]}
{"molecule": "α endorphin", "values": [{"measurement": "analgesic activity", "setting": "[2]", "value": "not analgesic"}]}
{"molecule": "γ endorphin: γ endorphin, stated not analgesic (YGGFMTSEKSQTPLVTL; Beta-endorphin gamma-endorphin; UniProt P01189 237-253, looked up, fragment)", "values": [{"measurement": "analgesic activity", "setting": "[2]", "value": "not analgesic"}]}
